In patent US20200216493A1, “ANTIMICROBIAL PEPTIDES” (FERRING B.V., priority 2016, published 2020):
In brackets after ≈: the same amount, converted by molar mass.

What was measured:
E. faecalis (5 isolates) = format: cell-based, Enterococcus faecalis; conditions: 20 h
Method: (§1) The broth microdilution susceptibility assay followed the procedure described by the Clinical and Laboratory Standards Institute (CLSI) in CLSI document M7-A10.
(§2) The following bacteria isolates were tested:
(§3) S.aureus, S.epidermidis, E.faecalis, and E.faecium colonies were grown on TSA (Tryptone Soya Agar; cat.N. P05012A -OXOID) S.pneumoniae and S.pyogenes colonies were grown on TSASB ((TSA) Agar +5% Sheep Blood; cat.N. PB5012A -OXOID). An inoculum was prepared by making a direct saline suspension of isolated colonies selected from an 18 to 24 hours agar plate incubated at 35±2 ° C. in ambient air. The suspension was adjusted to achieve a turbidity equivalent to a 0.5 McFarland turbidity standard (1 to 2 ×10^8 Colony Forming Units (CFU)) and diluted 200 fold within 15 minutes in broth. (S.aureus, S.epidermidis, E.faecalis, and E.faecium were diluted in CAMHB: Mueller Hinton Broth 2, Cation-Adjusted (cat. N. 90922 Fluka); S.pneumoniae and S.pyogenes were diluted in CAMHB +2.5% lysed horse blood. All broth contained 0.002% polysorbate 80.
(§4) 96-well plates were prepared containing 1 μL of the test compound (at 100× desired test concentration in 100% DMSO); compounds were tested at 8 final concentrations, i.e. 16 μg/mL, 8 μg/mL, 4 μg/mL, 2 μg/mL, 1 μg/mL, 0.5 μg/mL, 0.25 μg/mL, and 0.125 μg/mL. 100 μL of the broth dilution was dispensed in each well plate to have a final bacterial concentration in plate of ˜5×10^5 CFU/mL. The plates were incubated at 35±2° C. in ambient air for 20 hours.

E. faecium (3 isolates) = format: cell-based, Enterococcus faecium; conditions: 20 h
Method: as §1, §2, §3, §4

[1] = tested on: S. epidermidis (5 isolates); format: cell-based, Staphylococcus epidermidis; conditions: 20 h
Method: as §1, §2, §3, §4

E.coli = format: cell-based, Escherichia coli; conditions: for MIC ratio Coli/Staph: ratio of E. coli MIC to S. aureus MIC
Method: (§5) This assay was used to determine the minimum concentration of a test compound (i.e., an antimicrobial peptide described herein) able to inhibit the growth of a bacterial strain of interest. This is a standard method for measuring and comparing the potency of peptide-based antibacterial agents (Steinberg et al., Antimicrobial Agents and Chemotherapy 1997, 41 (8) 1738 - 1742 and Wiegand et al., Nature Protocols 2008, 3, 163-175).
(§6) The MIC is reported in units of μg/mL.
(§7) Bacterial cultures were grown by inoculating Mueller-Hinton Broth (MHB) with 3 or 4 representative colony (typical size, color, and shape) from a bacterial strain grown on a LB agar plate. Inoculated liquid cultures were grown at 37° C. with moderate shaking (200-250 rpm) until bacteria produced a visibly turbid suspension. Bacterial inoculum was approximated by measuring the optical density at 600 nm (0D600) of the bacterial culture against a sterile MHB blank. Typically, OD600=0.10 corresponds to ˜1×10^8 cfu/mL for S.aureus and OD600 =0.15 corresponds to ˜1×10^8 cfu/mL for E.coli.
(§8) Test compounds were prepared as stock solutions in vehicle at a concentration 10 times the highest concentration to be tested for antibacterial activity (usually 320 μg/mL stock solutions). 2x serial dilutions in vehicle (at 10× the final test concentrations) of the test compounds were prepared from the test compound stock solutions in a non-binding 96 well plate.
(§9) In a sterile clear flat bottom 96 well plate, 15 μL of each test compound dilution was added to 135 μL of ˜5×10^5 cfu/mL bacterial culture. Each concentration was tested in duplicate. Each experiment contained positive control wells for bacterial growth (i.e., no test compound added to bacteria) and sterility controls wells (i.e., sterile MHB and no test compounds added). 96 well plates containing bacterial cultures and test compounds were incubated at 37° C. for 16-20 hours with shaking at 200 rpm.
(§10) After incubation, the MIC of each test compound was determined by measuring the OD600 of each well using a plate reader. Wells with OD600 >0.08 were considered to have bacterial growth and wells with OD600<0.08 were considered to have no bacterial growth. The lowest concentration of test agent able to inhibit bacterial growth (0D600<0.08 after 16-20 hours) was defined as the MIC.

S. pyogenes (2 isolates) = format: cell-based, Streptococcus pyogenes; conditions: 20 h
Method: as §1, §2, §3, §4

[2] = tested on: S. pneumoniae (8 isolates); format: cell-based, Streptococcus pneumonia; conditions: 20 h
Method: as §1, §2, §3, §4

S. aureus (14 isolates) = format: cell-based, Staphylococcus aureus; conditions: 20 h
Method: as §1, §2, §3, §4

in vitro = format: cell-based; conditions: human, HepG2 cells
Method: Compounds were tested for cytotoxicity to a mammalian cell line HepG2 (Human hepatocyte carcinoma from ECACC (85011430)). Hep G2 cells were seeded into 96-well plates, 7500 cells/well in 100 μl medium (Minimum Essential Medium (Gibco 21090) supplemented with 2 mM L-Glutamine, 1% non-essential amino acids and 10% fetal bovine serum) and incubated for 20 hours at 37° C., 5% CO2. 100 μL of fresh medium containing a test compound or DMSO (for control) at 2× final concentration were added and incubated for 48 hours at 37° C., 5% CO2. The final concentration of DMSO in plate was 1%. At the end of this incubation, 20 μl MTT (Thiazolyl Blue Tetrazolium Bromide) solution 5 mg/ml in H2O (0.5 mg/ml final in well) was added to all wells. Cells were incubated with MTT for 4 hours at 37° C., 5% CO2. After incubation, medium containing MTT was removed; 200 μl of DMSO was added in each well and plates were put on a shaker for 5 minutes. Absorbance was read on a SpectraMax plate reader at 570 nm. Specific absorbance (Specific A570) was calculated by subtracting the mean absorbance values of the blank wells (no HepG2 cells) from each well. Control values were determined from wells containing cells and treated with medium+1% DMSO only (no test compound). % viability was calculated as:
(Specific A570test compound/Specific A570control)×100.

S.aureus = format: cell-based, Staphylococcus aureus
Method: as §5, §6, §7, §8, §9, §10

| E. faecalis (5) MIC90 (E. faecalis (5 isolates)) [µg/mL] | E. faecium (3) MIC90 (E. faecium (3 isolates)) [µg/mL] | S. epidermidis (MIC90) (5) [1] [µg/mL] | MIC C. difficile (C. difficile) [µg/mL] | MIC E. coli (E.coli) [µg/mL] | MIC ratio Coli/Staph (E.coli) | S. pyogenes (2) MIC90 (S. pyogenes (2 isolates)) [µg/mL] | S. pneumoniae (8) MIC90 [2] [µg/mL] | MIC B. fragilis (B. fragilis) [µg/mL] | S. Aureus (14) MIC90 (S. aureus (14 isolates)) [µg/mL] | MIC S. aureus (S.aureus) [µg/mL] | SMILES | viability at 48 h, 100 µM (in vitro) [%] |
| --- | --- | --- | --- | --- | --- | --- | --- | --- | --- | --- | --- | --- |
| 0.5 | 0.5 | ≤0.12 | 0.25 to 0.5 | >16 | >128 | ≤0.12 | ≤0.12 | >32 | 0.25 | 0.12 to 0.25 | CC[C@H](C)[C@H](NC(=O)[C@@H](Cc1ccccc1)NC)C(=O)N[C@@H](CO)C(=O)N[C@H](CCC(N)=O)C(=O)N[C@@H](C(=O)N[C@H](C(=O)N[C@@H](CO)C(=O)N[C@H]1C(=O)N[C@@H](C)C(=O)N[C@@H](Cc2ccc(NC(=N)N)cc2)C(=O)N[C@@H]([C@@H](C)CC)C(=O)O[C@H]1C)[C@@H](C)CC)[C@@H](C)CC [Compound 72, H-D-MePhe-Ile-Ser-D-Gln-D-aIle-Ile-Ser-c(D-Thr-Ala-Phe(4-guanidino)-Ile)] | 115 |
| ≤0.12 | ≤0.12 | ≤0.12 | 0.015 to 0.03 | >16 | >530 | ≤0.12 | ≤0.12 | >32 | ≤0.12 | 0.06 (≈ 0.0459 µM) | CC[C@H](C)[C@H](NC(=O)[C@@H](Cc1ccc2ccccc2c1)NC)C(=O)N[C@@H](CO)C(=O)N[C@H](CCC(N)=O)C(=O)N[C@@H](C(=O)N[C@H](C(=O)N[C@@H](CO)C(=O)N[C@H]1C(=O)N[C@@H](C)C(=O)N[C@@H](CCCCNC(=N)N)C(=O)N[C@@H]([C@@H](C)CC)C(=O)O[C@H]1C)[C@@H](C)CC)[C@@H](C)CC [Compound 75, H-D-Me2Nal-Ile-Ser-D-Gln-D-aIle-Ile-Ser-c(D-Thr-Ala-Har-Ile)] | 119 |
| 0.5 | 0.5 | ≤0.12 | 0.03 to 0.06 | >16 | >530 | ≤0.12 | ≤0.12 | >32 | ≤0.12 | 0.03 to 0.06 | CC[C@H](C)[C@H](NC(=O)[C@@H](Cc1ccccc1)NC)C(=O)N[C@@H](CO)C(=O)N[C@H](CCC(N)=O)C(=O)N[C@@H](C(=O)N[C@H](C(=O)N[C@@H](CO)C(=O)N[C@H]1C(=O)N[C@@H](C)C(=O)N[C@@H](CCCCNCc2ccccc2)C(=O)N[C@@H]([C@@H](C)CC)C(=O)O[C@H]1C)[C@@H](C)CC)[C@@H](C)CC [Compound 71, H-D-MePhe-Ile-Ser-D-Gln-D-aIle-Ile-Ser-c(D-Thr-Ala-Lys(Bn)-Ile)] | 92 |
| 1 | 0.5 | ≤0.12 | 0.06 to 0.12 | >16 | >530 | ≤0.12 | ≤0.12 | >32 | ≤0.12 | 0.06 (≈ 0.0466 µM) | CC[C@H](C)[C@H](NC(=O)[C@@H](Cc1ccc(OC)cc1)NC)C(=O)N[C@@H](CO)C(=O)N[C@H](CCC(N)=O)C(=O)N[C@@H](C(=O)N[C@H](C(=O)N[C@@H](CO)C(=O)N[C@H]1C(=O)N[C@@H](C)C(=O)N[C@@H](CCCCNC(=N)N)C(=O)N[C@@H]([C@@H](C)CC)C(=O)O[C@H]1C)[C@@H](C)CC)[C@@H](C)CC [Compound 74, H-D-MeTyr(Me)-Ile-Ser-D-Gln-D-aIle-Ile-Ser-c(D-Thr-Ala-Har-Ile)] | 136 |
| 0.25 | ≤0.12 | ≤0.12 | 0.015 to 0.03 | >16 | >530 | ≤0.12 | ≤0.12 | >32 | ≤0.12 | 0.03 to 0.06 | CC[C@H](C)[C@H](NC(=O)[C@@H](Cc1ccc(Cl)cc1)NC)C(=O)N[C@@H](CO)C(=O)N[C@H](CCC(N)=O)C(=O)N[C@@H](C(=O)N[C@H](C(=O)N[C@@H](CO)C(=O)N[C@H]1C(=O)N[C@@H](C)C(=O)N[C@@H](CCCCNC(=N)N)C(=O)N[C@@H]([C@@H](C)CC)C(=O)O[C@H]1C)[C@@H](C)CC)[C@@H](C)CC [Compound 70, H-D-MePhe(4-Cl)-Ile-Ser-D-Gln-D-aIle-Ile-Ser-c(D-Thr-Ala-Har-Ile)] | 114 |
